The results in this text go back to ChEMBL document CHEMBL1201862, “PubChem BioAssay data set” (2004).

One may read the EC50 as the concentration that produces a half-maximal response. The CC50 is the concentration at which the toxic effect on the cells reaches its halfway point. As usually defined, the AC50 is the concentration at which the activity in the assay is half-maximal.

The target in series [1] is T1, Streptokinase A (Streptococcus pyogenes serotype M1, UniProt P10520).
T1 sequence (P10520 whole entry): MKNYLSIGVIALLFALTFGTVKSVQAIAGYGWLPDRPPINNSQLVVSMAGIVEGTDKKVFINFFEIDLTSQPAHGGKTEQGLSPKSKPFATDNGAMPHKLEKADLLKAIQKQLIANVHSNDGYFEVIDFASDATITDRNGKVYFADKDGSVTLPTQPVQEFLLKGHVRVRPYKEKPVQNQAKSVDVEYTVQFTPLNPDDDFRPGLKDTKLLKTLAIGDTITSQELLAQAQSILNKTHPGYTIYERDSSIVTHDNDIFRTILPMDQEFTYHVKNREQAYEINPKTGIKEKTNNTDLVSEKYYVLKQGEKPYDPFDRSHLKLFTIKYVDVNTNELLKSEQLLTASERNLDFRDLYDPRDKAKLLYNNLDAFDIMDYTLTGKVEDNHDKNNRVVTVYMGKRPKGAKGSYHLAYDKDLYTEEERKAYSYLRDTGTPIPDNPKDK
Description: S. pyogenes streptokinase expression inhibitors, potency, dose response, plasminogen activation absorbance, OD405 (AID 1914).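 Further: secreted streptokinase activity via plasminogen activation per viability signal from cell pellet.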 Type of series: functional, Streptococcus pyogenes M1 GAS.

For series [2], the system named is Streptococcus. The series is described as follows: Group A Streptococcus viability loss, dose response, counter-screen for streptokinase expression inhibitor project, luminescence, BacTiterGlo (AID 1915).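 Further: potency for reduction of bacterial viability or growth.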 It counts as functional, organism-based. In general terms: A counterscreen serves to expose hits that act by an unwanted route or on another target.
The subject of series [3] is Streptococcus sp. 'group A'. The series is described as follows: growth inhibition of control SK(-) GAS strain, dose response, counter-screen for streptokinase expression inhibitor project, luminescence, kanamycin, BacTiterGlo, confirmation (AID 1900). Type of series: functional, organism-based.
Series [4] in a line: HEp-2 cell cytotoxicity, dose response, cytotoxicity control for RSV inhibitor project, HTS (AID 2410). It counts as functional. To be noted: human respiratory syncytial virus.
Series [5] addresses Cytochrome P450 2C19 (Homo sapiens, UniProt P33261). Description: Cytochrome panel assay with activity outcomes. Panel member name: p450-cyp2c19 Compounds with AC50 equal or less than 10 uM are considered active. Type of series: functional.
Series [6] is described as follows: cytotoxicity toward NIH3T3 fibroblasts, dose response, counter-screen, cell-based, ATP luminescence, mouse fibroblasts (AID 2010).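 Further: cells exposed to compound for about 90 hours before reading.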 Type of series: functional.
The nature of series [7]: inhibitors of intracellular T. cruzi replication, confirmation, NIH3T3 host cells, beta-gal luminescence (AID 2044).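 Further: intracellular parasites grown in NIH/3T3 mouse fibroblasts as host cells; luminescent beta-galactosidase reporter signal from transgenic T. cruzi replicating inside host cells; inhibitors lower the luminescence signal.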 It counts as functional, cell-based.

The structures appear in SMILES notation. Activity calls are given as the source filed them.

Cytochrome P450 2C19, sequence (P33261 whole entry): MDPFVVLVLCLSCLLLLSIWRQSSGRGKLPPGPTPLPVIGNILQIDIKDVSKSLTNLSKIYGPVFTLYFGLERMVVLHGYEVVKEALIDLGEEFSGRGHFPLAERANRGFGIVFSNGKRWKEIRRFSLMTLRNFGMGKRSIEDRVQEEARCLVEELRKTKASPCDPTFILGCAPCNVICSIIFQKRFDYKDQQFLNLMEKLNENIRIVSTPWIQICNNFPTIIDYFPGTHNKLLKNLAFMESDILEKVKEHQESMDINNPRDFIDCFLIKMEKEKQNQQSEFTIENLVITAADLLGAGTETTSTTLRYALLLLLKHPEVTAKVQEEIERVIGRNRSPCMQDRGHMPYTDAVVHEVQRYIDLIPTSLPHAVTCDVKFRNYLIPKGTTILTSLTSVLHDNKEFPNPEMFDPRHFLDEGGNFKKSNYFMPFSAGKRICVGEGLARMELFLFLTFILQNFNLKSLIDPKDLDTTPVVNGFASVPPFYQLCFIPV

For `O=S(=O)(Nc1cccc2c1CCCC2)c1ccc(Cl)cc1`, the values for the EC50 in series [1], in series [2] and in series [3] were 97.8 µM (inconclusive), > 150 µM (not active) and 4.86 µM (active), respectively.

For `Cc1cccc(CSc2ncnc3c2cnn3Cc2ccccc2)c1`, the values for the EC50 in series [1], in series [2] and in series [3] were > 150 µM (not active), > 150 µM (not active) and 23 µM (active), respectively.

For the compound `CC(=O)c1coc2c1cc(O)c1ccccc12`, in series [4], the 50% cytotoxic concentration (CC50) was > 50 µM (active).

With `COc1ccc(C2(C)NC(=O)N(CC(=O)Nc3ccc(-c4nc5ccc(C)cc5s4)cc3)C2=O)cc1` (stereo not drawn), the CC50 in series [4] is 29.8 µM (active).

As to `COc1cccc(-c2nc(NC3CC3)c3ccccc3n2)c1`, the AC50 in series [5] (read-out: AC50) was 10 µM (inconclusive).

In the case of `CCOC(=O)c1c(C)[nH]c(C(=O)COC(=O)c2cc(C)oc2C)c1C`, the CC50 in series [4] is > 50 µM (active).

Regarding `Cc1ccc2nc(O)c(COC(=O)C3CCCCC3)cc2c1`, in series [4], the CC50 was > 50 µM (active).

Regarding `Cn1c[n+](C)cc1/C=N/O`, the AC50 in series [5] (read-out: AC50) is 8.91 µM (inconclusive).

For `C/C(CCC(=O)OC[C@@H]1O[C@H](C#Cc2ccccc2)C=C[C@@H]1Oc1ccc(C)cc1)=N/O[C@@H](C)CN1CCCCc2nc(C)c(C)cc21`, in series [5] (read-out: AC50), the AC50 is 1.26 µM (inconclusive).

As to `CN(C(=S)NC(=O)c1ccccc1)C1CCCCC1`, the 50% effective concentration (EC50) in series [1], in series [2] and in series [3] was > 150 µM (not active) each time.

Regarding `CCn1cc(CN2CCCC(C(=O)c3ccc(-c4ccccc4)cc3)C2)cn1` (stereo not drawn), the EC50 was 16.7 µM (active) in series [6] and 0.222 µM (active) in series [7].

In the case of `CCN(CC)CCN(C)C(=O)CCc1nnc(-c2ccc(C)s2)o1`, the EC50 in series [6] is > 60 µM (not active); in series [7] it was 1.35 µM (active).

Consider `O=C1NC(=O)N(CCc2ccccc2)C(=O)/C1=C(O)/C=C/c1c[nH]c2ccccc12`, for which the EC50 was > 150 µM (not active) in series [1], 5.6 µM (active) in series [2] and 5.47 µM (active) in series [3].

`CCN1C(=O)N[C@@H](CCc2ccccc2)C(C(=O)OC)=C1C`: the cytotoxic concentration (CC50) in series [4] is 29.9 µM (active).

Turning to `CCOCCCN=C(S)NCCNc1nc2c(C)cccc2cc1C#N`, the 50% effective concentration (EC50) is > 60 µM (not active) in series [6] and 2.73 µM (active) in series [7].

For the compound `Cn1c(=O)c2[nH]c(-c3ccc(S(=O)(=O)O)cc3)nc2n(C)c1=O`, the AC50 result in series [5] was “inconclusive”.

`Cc1ccc(OC(=O)c2cccc(C(=O)Oc3ccc(C)cc3)n2)cc1`: the concentration at half-maximal activity (AC50) result in series [5] is “inconclusive”.

As for `Cc1ccc(C2c3c(C)nn(-c4ccc([N+](=O)[O-])cc4)c3N=C3C(=O)Nc4ccccc4N32)cc1` (stereo not drawn), the concentration giving a half-maximal response (EC50) in series [6] was > 60 µM (not active); in series [7] it was 1.45 µM (active).

On to `O=C(/C=C/c1cc[n+](CC(=O)c2ccc3cccc4c3c2CC4)cc1)c1ccc2cccc3c2c1CC3`, for which the EC50 is > 60 µM (not active) in series [6] and 0.146 µM (active) in series [7].

As for `NC(=S)N/N=C\c1c(OCc2ccccc2Cl)ccc2ccccc12`, the EC50 in series [1] is > 150 µM (not active); in series [2], > 150 µM (not active); in series [3], 2.39 µM (active).

`CC(C)NCC(O)COCCOc1ccc(Br)cc1` (stereo not drawn): the 50% effective concentration (EC50) in series [6] is > 30 µM (not active); in series [7], 1.1 µM (active).

Turning to `Cc1cnn(-c2nc(-c3ccccc3)cc(-c3ccccc3)n2)c1`, the EC50 in series [1] is 27.2 µM (active); in series [2], > 150 µM (not active); in series [3] it was 9.49 µM (active).

On to `FC(F)Sc1ccc(NC(S)=NC(c2ccccc2)c2ccccc2)cc1`, for which the EC50 is 3.15 µM (active) in series [2] and 2.4 µM (active) in series [3].

With `O=C(C(Cc1ccccc1)N1C(=O)C2C3CCC(C3)C2C1=O)N1CCCCC1` (stereo not drawn), in series [5] (read-out: AC50), the AC50 was 7.08 µM (inconclusive).

Take `Cc1c(C(O)CN2CCN(Cc3ccc4c(c3)OCO4)CC2)c2ccccc2n1C` (stereo not drawn): the EC50 was > 60 µM (not active) in series [6] and 2.47 µM (active) in series [7].

As for `COC(=O)[C@@H]1CC[C@H](C)[C@@H](c2ccc(C)cc2)N1C(=O)c1ccc(/C=N/O[C@@H](C)c2cn([C@H](CO)Cc3ccccc3)nn2)cc1`, the EC50 in series [6] is > 60 µM (inconclusive); in series [7], 0.891 µM (active).

In the case of `O=C(CCCN1C(=O)/C(=C\c2cccs2)SC1=S)Nc1cc([N+](=O)[O-])ccc1O`, the EC50 was 25.3 µM (active) in series [1], > 150 µM (not active) in series [2] and 4.29 µM (active) in series [3].

As for `O=C(c1ccccc1Cl)N1CCN(S(=O)(=O)c2cccs2)CC1`, the EC50 in series [1], in series [2] and in series [3] was > 150 µM (not active) in each case.

For `CCC/C=C(\CCC)C(NS(=O)(=O)CC12CCC(CC1=O)C2(C)C)c1ccc(C(=O)OC)cc1` (stereo not drawn), the AC50 in series [5] (read-out: AC50) was 25.1 µM (inconclusive).

As to `CCc1c(C)nc(N)n2c(SCC(=O)Nc3ccccc3)nnc12`, the AC50 in series [5] (read-out: AC50) was 22.4 µM (inconclusive).

As for `Fc1ccc(N2CCN(C3=Nc4cccc5cccc3c45)CC2)cc1`, the values for the half-maximal effective concentration (EC50) in series [6] and in series [7] were > 30 µM (not active) and 1.74 µM (active), respectively.

On to `Cc1ccc2nc(O)c(CN(CCCN(C)C)C(S)=NCCc3ccccc3)cc2c1`, for which the results for the concentration giving a half-maximal response (EC50) in series [6] and in series [7] were > 60 µM (not active) and 0.409 µM (active), respectively.

For `CN(C)CCCNc1ncc(C(F)(F)F)cc1Cl`, the figures for the concentration for a half-maximal effect (EC50) in series [6] and in series [7] were > 30 µM (not active) and 0.659 µM (active), respectively.

For `O=C(N[C@H](CO)[C@H](O)c1ccc([N+](=O)[O-])cc1)C(Cl)Cl` [CHLORAMPHENICOL], the results for the concentration giving a half-maximal response (EC50) in series [2] and in series [3] were 2.55 µM (active) and 1.84 µM (active), respectively.

Regarding `COc1ncc2nc(-c3cn(C)c4ccccc34)c(=O)n(Cc3ccc(F)cc3)c2n1`, the AC50 in series [5] (read-out: AC50) is 15.8 µM (inconclusive).

`O=C(NCC1CCCO1)c1cc2c3ccccc3nc-2c(-c2cccc(Cl)c2)[nH]1` (stereo not drawn): the 50% effective concentration (EC50) in series [1] is > 150 µM (not active); in series [2], 25.3 µM (active); in series [3], 4.12 µM (active).

For the compound `CN(CCOc1ccccc1)C(=O)c1cc([N+](=O)[O-])cc([N+](=O)[O-])c1`, the concentration for a half-maximal effect (EC50) is > 30 µM (not active) in series [6] and 0.7 µM (active) in series [7].

For `Sc1nnc(-c2cccs2)n1/N=C/c1cn(-c2ccccc2)nc1-c1ccccc1`, the EC50 is > 150 µM (not active) in series [1], 71.7 µM (active) in series [2] and 6.85 µM (active) in series [3].

Regarding `CCn1c(SCC(=O)OC)nnc1C1CCCCC1`, the half-maximal activity concentration (AC50) in series [5] (read-out: AC50) was 14.1 µM (inconclusive).

Take `O=C(Nc1nc(-c2ccccn2)cs1)C1CC1`: the EC50 in series [1], in series [2] and in series [3] was > 150 µM (not active) in each case.

Consider `C=CCNC(=O)O/N=C/c1csc([N+](=O)[O-])c1`, for which the concentration giving a half-maximal response (EC50) in series [6] is > 60 µM (not active); in series [7], 1.93 µM (active).

On to `COc1ccc(Oc2nc(C(F)(F)F)nc3ccccc23)cc1`, for which the EC50 in series [1] was 46.8 µM (active); in series [2] it was > 150 µM (not active); in series [3], 29.1 µM (active).

`CN1CCC(OC(=O)c2ccccc2Cl)CC1`: the EC50 in series [6] was 10.5 µM (active); in series [7], 0.178 µM (active).
